Source: patent US3954793A, “1-(2-Propynyl)-1 H-indazole compounds” (priority 1973, dated 1976)

Key:
[1] = tested on: IN/WHO strain house flies; assay: topical application, percent kill after 24 hours, susceptible IN/WHO strain; type: in vivo, female); settings: for percent kill after 24 hours, synergist alone (GS 13005 part of Table XXXI): GS 13005 0, synergist 1 μg/fly; for percent kill after 24 hours, with GS 13005: GS 13005 0.10 + synergist 0.50 μg/fly; for percent kill after 24 hours, with Mobam: Mobam 0.20 + synergist 1 μg/fly; for percent kill after 24 hours, synergist alone: insecticide 0, synergist 1 μg/fly
Description: (§1) In Table IX, and in the tables following it, the doses of topically applied insecticides and of synergists unless otherwise noted are expressed as micrograms per fly (μg/fly).
(§2) The synergistic effect of O-(2-propynyl) oximes with mobam was determined from topical application tests on susceptible, female, IN/WHO strain house flies and from tests on resistant, female, Rutgers A strain house flies. The synergist and insecticide were dissolved in ACS Grade acetone in such quantities that a 1.0 μ liter volume applied to the thorax of 3-to-5 day old CO2 -anesthetized female adult house flies contained the desired dosage. After being treated, the flies were confined, 10 to a plaster petri dish, with 3-5 dishes/treament, and held for 24-hr. observation of mortality. Reconstituted skim milk on cotton dental wicks was provided during the holding period. The percent kills after 24 hours are shown in Table X for the IN/WHO strain and Table XI for the Rutgers A strain.
(§3) The synergistic effect of benzyl 2-propynyl ethers with mobam was determined from topical application tests on IN/WHO and Rutgers A strain houseflies, following the procedure of Example 5. The percent kills after 24 hours are shown in Table XIV for the IN/WHO strain and in Table XV for the Rutgers A strain.
The effects of varying the insecticide dose and the synergist-insecticide ratio are further illustrated, with synergist compounds II-D, II-E, II-F and Mobam insecticide, in Tables XVI, XVII and XVIII. […]
The effect on IN/WHO flies of synergist compound IV-C, identified in Table IV, with mobam was determined by the topical application procedure of Example 5. […]
(§4) The synergistic effect with GS 13005 of compounds I-A, I-B, I-D, I-E, I-F, I-G and I-I was determined from topical application tests to IN/WHO strain, Rutgers A strain and polyvalent CH strain houseflies using the procedures of Example 5. The percent kills of the IN/WHO strain flies after 24 hours are shown in Table XXVIII; of the Rutgers A strain, in Table XXIX; and of the polyvalent CH strain, in Table XXX. The doses of insecticide alone to the CH strain files caused 10-40% mortality.
The synergistic effect with Diazinon and GS 13005 of various of the benzyl 2-propynyl ethers identified in Tables II and IIa was determined by topical application tests on IN/WHO strain, and Rutgers A strain and polyvalent, resistant, CH strain houseflies using the procedures of Example 5. The percent kills after 24 hours of IN/WHO strain flies are shown in Table XXXI; of Rutgers A strain flies, in Table XXXII; and of CH strain flies, in Table XXXIII. The doses of insecticide alone to the CH strain flies caused 10-40% mortality. […]
(§5) The synergistic effect on IN/WHO strain flies and Rutgers A strain flies of compound IV-C with GS 13005 and with Diazinon was determined by the topical application procedure of Example 5. The percent kills of IN/WHO strain flies after 24 hours are shown in Tables XXXVI and XXXVII; the percent kills of Rutgers A strain flies are shown in Tables XXXVIII and XXXIX.

[2] = tested on: Swiss albino, white male mice; assay: acute toxicity and synergism of acute toxicity in mice; type: in vivo; settings: for number of mice dead, with Dimetilan: 48 hours; for number of mice dead, with GS 13005: GS 13005 71 + synergist 213 mg/kg; for number of mice dead, with Methadone: Methadone 32 + synergist 215 mg/kg; for number of mice dead, with Secobarbital: Secobarbital 90 + synergist 215 mg/kg
Description: To determine the acute toxicity of dimetilan alone, eight dosage levels of Dimetilan, ranging from 4 to 32 mg per kg were applied to eight, Swiss, albino, white, male mice per dosage level. The mice weighed approximately 23 to 27 grams and were five to six weeks old. The Dimetilan was administered intraperitoneally in 0.1 ml of corn oil one hour after the administration of the same dose of corn oil alone.
To determine the acute toxicity of the synergist alone, various synergists were administered intraperitoneally at a dose of 1000 mg/kg to each of a group of eight mice. The number of animals dead at the end of 72 hours is reported in the left hand column of Table XXXXVI.
The synergism of the acute toxicity of Dimetilan by various synergists was determined by tests on Swiss albino, white male mice aged five to six weeks and weighing 23 to 27 grams. The synergists and insecticides were dissolved in corn oil and the drugs were dissolved in distilled water. All compounds were administered intraperitoneally by injection in the lower quadrent of the abdomen. The synergist was administered in 0.1 ml of corn oil one hour prior to administration of the insecticide. Eight mice were treated, per dosage, with each synergist. The mice were watched for a minimum of 6 hours while held in a glass jar with bedding individually after intraperitoneal injection of the test solutions. Lethality was noted, the animals were weighed and transferred in cages, and food and water were supplied. Control mice were given 0.1 ml of corn oil at the time of administration of the synergist to the test mice and 0.1 ml corn oil plus Dimetilan at the time of administration of the insecticide to the test mice.
By the same procedure, the synergism of acute toxicity of GS 13005, Secobarbital and 6-dimethylamino-4,4-diphenyl-3-heptanone [Methadone] was determined.

[3] = tested on: Rutgers A strain house flies; assay: topical application, percent kill after 24 hours, resistant Rutgers A strain; type: in vivo, female); settings: for percent kill after 24 hours, with GS 13005: GS 13005 1.0 + synergist 5.0 μg/fly; for percent kill after 24 hours, with Mobam: Mobam 0.40 + synergist 2.0 μg/fly; for percent kill after 24 hours, synergist alone: insecticide 0, synergist 5.0 μg/fly
Description: as §1, §2, §3
The synergistic effect with Diazinon of compounds I-B, I-D, I-F, I-G, I-H and I-I, identified in Tables I and Ia, was determined from topical application tests on IN/WHO strain houseflies and on Rutgers A strain houseflies by the procedure of Example 5. The percent kills after 24 hours are shown in Table XXV for the IN/WHO strain and Table XXVI for the Rutgers A strain.
as §4
The synergistic effect with Diazinon and GS 13005 of various of the benzyl 2-propynyl ethers identified in Tables II and IIa was determined by topical application tests on IN/WHO strain, and Rutgers A strain and polyvalent, resistant, CH strain houseflies using the procedures of Example 5. The percent kills after 24 hours of IN/WHO strain flies are shown in Table XXXI; of Rutgers A strain flies, in Table XXXII; and of CH strain flies, in Table XXXIII. The doses of insecticide alone to the CH strain flies caused 10-40% mortality.
as §5

male mice = assay: extension of sleeping time of depressant drugs by synergists; type: in vivo, male mice (Swiss albino white); settings: for Mean Sleeping Time, Noludar / Relative Sleeping Time, Noludar: Noludar 110 mg/kg; for Relative Sleeping Time, Noludar / Relative Sleeping Time, Secobarbital: treated/control; for Mean Sleeping Time, Secobarbital / Relative Sleeping Time, Secobarbital: Secobarbital 37 mg/kg
Description: The selectivity of the synergist compounds of this invention is illustrated by the results of sleeping-time extension tests and of acute toxicity tests on Swiss albino white male mice.
The effect of various synergist compounds on sleeping time of sodium secobarbital [Secobarbital] and of 3,3-diethyl-5-methyl-2,4-dioxypiperidine [Noludar] was determined by administering the drug, with and without synergist, to approximately 38-day old male mice weighing from 25 to 30 grams. Synergists were administered in each of two doses, 74.0 mg/kg (dilution being 2.0 mg/0.1 ml corn oil), and 110.0 mg/kg (dilution 3.0 mg/0.1 ml oil). Secobarbital was administered at a dose of 37.0 mg/kg (dilution 1.0 mg/0.1 ml water). Noludar was administered at a dose of 110.0 mg/kg (dilution 3.0 mg/0.1 ml water). The synergist was administered one hour prior to administration of the Secobarbital or Noludar. Secobarbital and Noludar sleeping times were obtained for both the control (drug only) and the treated (synergist plus drug) mice by noting the time lapse between the administration of the drug and the recovery of the righting reflex, i.e. when the animal regains conciousness and can walk up an inclined wooden tray with coordination. The relative sleeping time (R.S.) was noted. The R.S. is the extended sleeping time in the treated mice (synergist plus drug) divided by the sleeping time in the control mice (drug only). The mean sleeping time for the treated mice and the R.S. are shown on Table XXXXIV for various synergist compounds.

[4] = Dimetilan 8 + synergist 80 mg/kg i.p., eight mice
[5] = Dimetilan 8 + synergist 240 mg/kg i.p., eight mice
[6] = synergist 110 mg/kg one hour prior
[7] = synergist 74 mg/kg one hour prior

| SMILES | percent kill after 24 hours, synergist alone (GS 13005 part of Table XXXI) [1] [%] | percent kill after 24 hours, with GS 13005 [1] [%] | percent kill after 24 hours, with Mobam [1] [%] | percent kill after 24 hours, synergist alone [1] [%] | number of mice dead, with Dimetilan [2, 4] | number of mice dead, with Dimetilan [2, 5] | number of mice dead, with GS 13005 [2] | number of mice dead, with Methadone [2] | number of mice dead, with Secobarbital [2] | percent kill after 24 hours, with GS 13005 [3] [%] | percent kill after 24 hours, with Mobam [3] [%] | percent kill after 24 hours, synergist alone [3] [%] | Mean Sleeping Time, Noludar (male mice; [6]) [min] | Relative Sleeping Time, Noludar (male mice; synergist 110 mg/kg) | Mean Sleeping Time, Secobarbital (male mice; [7]) [min] | Relative Sleeping Time, Secobarbital (male mice; synergist 74 mg/kg) | Mean Sleeping Time, Secobarbital (male mice; [6]) [min] | Relative Sleeping Time, Secobarbital (male mice; synergist 110 mg/kg) | also measured |
| --- | --- | --- | --- | --- | --- | --- | --- | --- | --- | --- | --- | --- | --- | --- | --- | --- | --- | --- | --- |
| C#CCOCc1ccc(Cl)cc1[N+](=O)[O-] [II-J] | 13 | 99 | 100 | 13 | 0 | 4 | 6 | 3 | 0 | 100 | 70 | 0 | 70 | 2.2 | 27 | 1.0 | 30 | 1.4 |  |
| C#CCOCc1cccc([N+](=O)[O-])c1Cl [II-L] | 3 | 97 | 89 | 3 | 0 | 5 |  |  |  | 83 | 52 | 0 | 56 | 1.8 | 31 | 1.0 | 42 | 1.8 |  |
| CCC(=O)C(CC(C)N(C)C)(c1ccccc1)c1ccccc1 (centres unmarked) [Methadone, 6-dimethylamino-4,4-diphenyl-3-heptanone, reference compound] |  |  |  |  |  |  |  |  |  |  |  |  |  |  |  |  |  |  | number of mice dead, control (Methadone alone) ([2]; Methadone (32 mg/kg) in 0.1 ml corn oil): 2 |
| C=CCC1(C(C)CCC)C(=O)NC(=O)NC1=O (centres unmarked) [Secobarbital, sodium secobarbital, reference compound] |  |  |  |  |  |  |  |  |  |  |  |  |  |  |  |  |  |  | number of mice dead, control (Secobarbital alone) ([2]; Secobarbital (90 mg/kg) in 0.1 ml corn oil): 0 |
| CCOCCOCCOC(C)Oc1ccc2c(c1)OCO2 (centres unmarked) [Sesoxane, reference compound] |  |  |  |  | 8 | 8 | 0 | 5 | 6 |  |  |  |  | 3.1 |  | 6.1 |  | 8.3 | number of mice dead, synergist alone ([2]; synergist 1000 mg/kg i.p., Dimetilan 0, 72 hours, eight mice): 1 |
